Laboratory results taken from patent US10563263B2, “Genetic polymorphisms associated with statin response and cardiovascular diseases, methods of detection and uses thereof” (CELERA CORPORATION, priority 2010, dated 2020).

Tested on: CHD
Assay: Meta-analysis of CARE and WOSCOPS combined, synergy index, CHD endpoint
Format: in vivo, human
Source text: Tables 4-5 provide meta-analyses of CARE and WOSCOPS combined (2nd section of each table) for two endpoints (CHD and CVD) and three genetic models (dominant, recessive, and additive), as well as logistic regression analyses of CARE (3rd section of each table) and WOSCOPS (4th section of each table) individually.
Tables 12 and 17 provide results of meta-analysis of the CARE and WOSCOPS sample sets combined by direct genotyping and by imputing genotypes.
“P” indicates the p-value, and “P(R)” (or “P.R.”) indicates the p-value random effect. Both of these are p-values corresponding to a statistical test of whether the combined synergy index is equal to one but use different assumptions to derive the p-value. “P” is calculated using a fixed effects model, and “P(R)” is calculated using a random effects model.
“OR” indicates the odds ratio (synergy index) calculated from a fixed effects model, and “OR(R)” (or “OR.R.”) indicates the odds ratio (synergy index) calculated from a random effects model.

[1] = SNP rs1321432, allele (A1) A, RECESSIVE, Imputed
[2] = SNP rs1321457, allele (A1) G, RECESSIVE, Imputed
[3] = SNP rs1336382, allele (A1) T, DOMINANT, Imputed
[4] = SNP rs1336383, allele (A1) T, DOMINANT, Imputed
[5] = SNP rs1336407, allele (A1) T, DOMINANT, Imputed
[6] = SNP rs1336409, allele (A1) T, DOMINANT, Imputed
[7] = SNP rs1336596, allele (A1) A, DOMINANT, Imputed
[8] = SNP rs1343560, allele (A1) T, ADDITIVE, Imputed
[9] = SNP rs1343560, allele (A1) T, DOMINANT, Imputed
[10] = SNP rs1361987, allele (A1) T, GENOTYPIC, Imputed
[11] = SNP rs12923993, allele (A1) C, DOMINANT, Imputed
[12] = SNP rs12936964, allele (A1) T, DOMINANT, Imputed
[13] = SNP rs12960663, allele (A1) G, ADDITIVE, Imputed
[14] = SNP rs13038146, allele (A1) C, ADDITIVE, Imputed
[15] = SNP rs13038146, allele (A1) C, GENOTYPIC, Imputed
[16] = SNP rs13134222, allele (A1) A, GENOTYPIC, Imputed
[17] = SNP rs13172910, allele (A1) A, DOMINANT, Imputed
[18] = SNP rs13194907, allele (A1) A, ADDITIVE, Imputed
[19] = SNP rs13194907, allele (A1) A, DOMINANT, Imputed
[20] = SNP rs13195745, allele (A1) A, ADDITIVE, Imputed
[21] = SNP rs13195745, allele (A1) A, DOMINANT, Imputed
[22] = SNP rs13265054, allele (A1) T, DOMINANT, Imputed
[23] = SNP rs13282131, allele (A1) C, GENOTYPIC, Imputed
[24] = SNP rs13353526, allele (A1) C, DOMINANT, Imputed
[25] = rs1003148 allele C RECESSIVE Imputed
[26] = rs1008705 allele C DOMINANT Imputed
[27] = rs1149350 allele A DOMINANT Imputed
[28] = rs1150143 allele G DOMINANT Imputed
[29] = rs1204522 allele C GENOTYPIC Imputed
[30] = rs1204524 allele A GENOTYPIC Imputed
[31] = rs1232298 allele G RECESSIVE Imputed
[32] = rs1247340 allele C DOMINANT Imputed
[33] = rs1247341 allele C DOMINANT Imputed
[34] = rs10046799 allele C ADDITIVE Imputed
[35] = rs10046799 allele C GENOTYPIC Imputed
[36] = rs10051148 allele C DOMINANT Imputed
[37] = rs10054055 allele T DOMINANT Imputed

CC[C@H](C)C(=O)O[C@H]1C[C@H](O)C=C2C=C[C@H](C)[C@H](CC[C@@H](O)C[C@@H](O)CC(=O)O)[C@H]21 [Pravastatin, pravastatin]
OR [1]: 2.1221 | OR(R) [1]: 2.1221 | OR [2]: 2.0656 | OR(R) [2]: 2.0656 | OR [3]: 1.6135 | OR(R) [3]: 1.6135 | OR [4]: 1.6135 | OR(R) [4]: 1.6135 | OR [5]: 1.6135 | OR(R) [5]: 1.6135 | OR [6]: 1.6085 | OR(R) [6]: 1.6059 | OR [7]: 0.5951 | OR(R) [7]: 0.5951 | OR [8]: 0.5393 | OR(R) [8]: 0.5393 | OR [9]: 0.5034 | OR(R) [9]: 0.5034 | OR [10]: 0.4404 | OR(R) [10]: 0.4404 | OR [11]: 1.4572 | OR(R) [11]: 1.4572 | OR [12]: 1.6688 | OR(R) [12]: 1.6688 | OR [13]: 0.6241 | OR(R) [13]: 0.6241 | OR [14]: 1.3708 | OR(R) [14]: 1.3708 | OR [15]: 1.9308 | OR(R) [15]: 1.9308 | OR [16]: 0.3011 | OR(R) [16]: 0.3011 | OR [17]: 0.6547 | OR(R) [17]: 0.6547 | OR [18]: 2.303 | OR(R) [18]: 2.303 | OR [19]: 2.505 | OR(R) [19]: 2.505 | OR [20]: 2.303 | OR(R) [20]: 2.303 | OR [21]: 2.505 | OR(R) [21]: 2.505 | OR [22]: 0.6144 | OR(R) [22]: 0.6144 | OR [23]: 1.8412 | OR(R) [23]: 1.8412 | OR [24]: 1.9371 | OR(R) [24]: 1.9371 | Meta-analysis OR (rs1948 allele A vs G (ref)): 1.66 | Meta-analysis OR (rs151806 allele G vs A (ref)): 0.63 | Meta-analysis OR (rs205279 allele A vs G (ref)): 1.81 | Meta-analysis OR (rs238272 allele A vs G (ref)): 1.45 | Meta-analysis OR (rs312929 allele G vs A (ref)): 0.75 | Meta-analysis OR (rs316720 allele G vs A (ref)): 0.71 | Meta-analysis OR (rs331555 allele A vs C (ref)): 0.74 | Meta-analysis OR (rs354342 allele A vs G (ref)): 0.67 | Meta-analysis OR (rs453625, allele A1 A (non-ref), A2 G (ref), endpoint/model not given): 0.62 | Meta-analysis OR (rs610118 allele G vs A (ref)): 0.49 | Meta-analysis OR (rs669684 allele G vs A (ref)): 0.72 | Meta-analysis OR (rs842796 allele A vs G (ref)): 1.59 | Meta-analysis OR (rs886469 allele G vs A (ref)): 0.64 | Meta-analysis OR (rs969356 allele G vs A (ref)): 0.63 | OR [25]: 0.5819 | OR(R) [25]: 0.5829 | OR [26]: 1.4761 | OR(R) [26]: 1.4761 | Meta-analysis OR (rs1035618 allele A vs C (ref)): 1.42 | Meta-analysis OR (rs1076733, allele A1 A (non-ref), A2 G (ref), endpoint/model not given): 0.67 | OR [27]: 1.6713 | OR(R) [27]: 1.6713 | OR [28]: 1.6852 | OR(R) [28]: 1.6852 | Meta-analysis OR (rs1182878, allele A1 A (non-ref), A2 G (ref), endpoint/model not given): 0.78 | OR [29]: 0.4353 | OR(R) [29]: 0.4353 | OR [30]: 0.4351 | OR(R) [30]: 0.4351 | OR [31]: 2.0566 | OR(R) [31]: 2.0955 | OR [32]: 1.6742 | OR(R) [32]: 1.6742 | OR [33]: 1.684 | OR(R) [33]: 1.684 | Meta-analysis OR (rs1343563 allele C vs A (ref)): 0.60 | Meta-analysis OR (rs1349282 allele A vs G (ref)): 0.55 | Meta-analysis OR (rs1382787 allele G vs A (ref)): 1.35 | Meta-analysis OR (rs1474396, allele A1 A (non-ref), A2 C (ref), endpoint/model not given): 1.46 | Meta-analysis OR (rs1615197 allele G vs A (ref)): 1.80 | Meta-analysis OR (rs1884897 allele A vs G (ref)): 2.07 | Meta-analysis OR (rs2008165 allele G vs A (ref)): 0.59 | Meta-analysis OR (rs2023650 allele A vs G (ref)): 0.71 | Meta-analysis OR (rs2060411 allele A vs G (ref)): 1.39 | Meta-analysis OR (rs2104506 allele A vs C (ref)): 0.71 | Meta-analysis OR (rs2129571, allele A1 A (non-ref), A2 G (ref), endpoint/model not given): 0.53 | Meta-analysis OR (rs2145540 allele A vs G (ref)): 0.56 | Meta-analysis OR (rs2268650 allele A vs G (ref)): 0.66 | Meta-analysis OR (rs2273816 allele A vs G (ref)): 1.61 | Meta-analysis OR (rs2290193, allele A1 C (non-ref), A2 A (ref), endpoint/model not given): 0.47 | Meta-analysis OR (rs2376764 allele A vs G (ref)): 0.56 | Meta-analysis OR (rs2418412 allele G vs A (ref)): 1.94 | Meta-analysis OR (rs2483641, allele A1 A (non-ref), A2 G (ref), endpoint/model not given): 0.59 | Meta-analysis OR (rs2534752 allele G vs A (ref)): 1.65 | Meta-analysis OR (rs2626130 allele G vs A (ref)): 1.32 | Meta-analysis OR (rs2695026 allele A vs G (ref)): 0.67 | Meta-analysis OR (rs2793086 allele C vs A (ref)): 0.65 | Meta-analysis OR (rs2941528 allele A vs G (ref)): 0.67 | Meta-analysis OR (rs3000490 allele G vs A (ref)): 1.38 | Meta-analysis OR (rs3213616 allele A vs G (ref)): 0.62 | Meta-analysis OR (rs3732788 allele G vs A (ref)): 0.51 | Meta-analysis OR (rs3798544 allele A vs G (ref)): 1.57 | Meta-analysis OR (rs3998860 allele A vs G (ref)): 0.61 | Meta-analysis OR (rs4289236 allele A vs G (ref)): 1.41 | Meta-analysis OR (rs4611134 allele A vs G (ref)): 1.55 | Meta-analysis OR (rs4643388 allele G vs A (ref)): 1.34 | Meta-analysis OR (rs4682522 allele C vs A (ref)): 0.55 | Meta-analysis OR (rs4830819 allele G vs A (ref)): 0.60 | Meta-analysis OR (rs4869033 allele G vs A (ref)): 0.36 | Meta-analysis OR (rs4924215 allele A vs G (ref)): 1.65 | Meta-analysis OR (rs4986146 allele A vs G (ref)): 0.63 | Meta-analysis OR (rs4993917 allele A vs C (ref)): 0.60 | Meta-analysis OR (rs5017584 allele A vs G (ref)): 1.74 | Meta-analysis OR (rs6075209 allele A vs G (ref)): 0.64 | Meta-analysis OR (rs6080603 allele A vs C (ref)): 0.62 | Meta-analysis OR (rs6491586 allele G vs A (ref)): 1.65 | Meta-analysis OR (rs6505669 allele G vs A (ref)): 1.58 | Meta-analysis OR (rs6911817, allele A1 A (non-ref), A2 G (ref), endpoint/model not given): 2.85 | Meta-analysis OR (rs7094941, allele A1 G (non-ref), A2 A (ref), endpoint/model not given): 0.74 | Meta-analysis OR (rs7179134 allele A vs G (ref)): 3.52 | Meta-analysis OR (rs7193741 allele A vs C (ref)): 2.04 | Meta-analysis OR (rs7327364 allele A vs G (ref)): 0.68 | Meta-analysis OR (rs7497613, allele A1 A (non-ref), A2 G (ref), endpoint/model not given): 0.55 | Meta-analysis OR (rs7616936, allele A1 C (non-ref), A2 A (ref), endpoint/model not given): 1.77 | Meta-analysis OR (rs7705993 allele G vs A (ref)): 1.48 | Meta-analysis OR (rs7767024, allele A1 A (non-ref), A2 G (ref), endpoint/model not given): 1.42 | Meta-analysis OR (rs7910196, allele A1 G (non-ref), A2 A (ref), endpoint/model not given): 1.47 | Meta-analysis OR (rs8051893 allele A vs G (ref)): 0.67 | Meta-analysis OR (rs8109631 allele A vs G (ref)): 1.53 | Meta-analysis OR (rs9375683 allele G vs A (ref)): 1.49 | Meta-analysis OR (rs9436636 allele A vs G (ref)): 1.35 | Meta-analysis OR (rs9446187 allele A vs G (ref)): 1.96 | Meta-analysis OR (rs9658127, allele A1 A (non-ref), A2 G (ref), endpoint/model not given): 2.79 | OR [34]: 0.724 | OR(R) [34]: 0.7134 | OR [35]: 0.5342 | OR(R) [35]: 0.5221 | OR [36]: 0.5783 | OR(R) [36]: 0.5783 | OR [37]: 0.5791 | OR(R) [37]: 0.5791 | OR (rs10067895 allele A DOMINANT Imputed): 0.5759
